Measurements as given in the NIST ThermoML archive (doi:10.1021/je800110r).

Conditions: 313.14 K, Liquid, Vibrating tube method

CCCCCCCCCC [decane]
Conditions | mass density [kg/m3]
15552 kPa | 727.4
15582 kPa | 727.2
15613 kPa | 727.3
15637 kPa | 727.3
15663 kPa | 727.3
15908 kPa | 727.6
15941 kPa | 727.5
15972 kPa | 727.6
16007 kPa | 727.6
16031 kPa | 727.6
16067 kPa | 727.7
16091 kPa | 727.6
16114 kPa | 727.7
16151 kPa | 727.8
16180 kPa | 727.7
16204 kPa | 727.8
16241 kPa | 727.8
16273 kPa | 727.8
16306 kPa | 727.9
16338 kPa | 727.9
16359 kPa | 727.8
16381 kPa | 727.9
16402 kPa | 728
16427 kPa | 727.9
16452 kPa | 727.9
16478 kPa | 728
16507 kPa | 728
16537 kPa | 728
16566 kPa | 728
16587 kPa | 728
16618 kPa | 728.1
16648 kPa | 728.1
16683 kPa | 728.1
16721 kPa | 728.2
16748 kPa | 728.1
16784 kPa | 728.2
16824 kPa | 728.1
16860 kPa | 728.2
16883 kPa | 728.2
16907 kPa | 728.3
16935 kPa | 728.3
16975 kPa | 728.4
16996 kPa | 728.4
17023 kPa | 728.3
17046 kPa | 728.4
17070 kPa | 728.3
17101 kPa | 728.4
17124 kPa | 728.5
17149 kPa | 728.5
17170 kPa | 728.4
17191 kPa | 728.4
17222 kPa | 728.6
17243 kPa | 728.6
17264 kPa | 728.5
17296 kPa | 728.6
17320 kPa | 728.5
17348 kPa | 728.5
17377 kPa | 728.5
17408 kPa | 728.6
17430 kPa | 728.7
17455 kPa | 728.7
17481 kPa | 728.6
17502 kPa | 728.8
17528 kPa | 728.7
17557 kPa | 728.8
17609 kPa | 728.8
17763 kPa | 728.9
17790 kPa | 728.9
17820 kPa | 729
17842 kPa | 729
17877 kPa | 729.1
17905 kPa | 729
17931 kPa | 729.1
17958 kPa | 729
17988 kPa | 729.1
18011 kPa | 729.1
18042 kPa | 729.1
18062 kPa | 729.2
18096 kPa | 729.1
18131 kPa | 729.2
18170 kPa | 729.2
18202 kPa | 729.2
18226 kPa | 729.2
18249 kPa | 729.2
18273 kPa | 729.3
18301 kPa | 729.3
18325 kPa | 729.4
18346 kPa | 729.4
18374 kPa | 729.4
18403 kPa | 729.5
18439 kPa | 729.3
18460 kPa | 729.4
18494 kPa | 729.4
18522 kPa | 729.5
18544 kPa | 729.6
18569 kPa | 729.5
18600 kPa | 729.6
18628 kPa | 729.5
18646 kPa | 729.5
18671 kPa | 729.5
18697 kPa | 729.6
18722 kPa | 729.5
18748 kPa | 729.6
18781 kPa | 729.6
18812 kPa | 729.7
18842 kPa | 729.7
18869 kPa | 729.7
18894 kPa | 729.8
18927 kPa | 729.8
18953 kPa | 729.7
18979 kPa | 729.8
19001 kPa | 729.8
19027 kPa | 729.8
19054 kPa | 729.8
19076 kPa | 729.8
19102 kPa | 729.9
19133 kPa | 729.9
19152 kPa | 730
19187 kPa | 730
19210 kPa | 729.9
19237 kPa | 729.9
19256 kPa | 730
19287 kPa | 730.1
19326 kPa | 730
19353 kPa | 730
19380 kPa | 730.1
19412 kPa | 730.1
19441 kPa | 730.2
19466 kPa | 730.2
19487 kPa | 730.2
19512 kPa | 730.2
19546 kPa | 730.2
19564 kPa | 730.2
19582 kPa | 730.2
19606 kPa | 730.3
19634 kPa | 730.2
19655 kPa | 730.3
19686 kPa | 730.3
19711 kPa | 730.4
19727 kPa | 730.4
19745 kPa | 730.4
19773 kPa | 730.4
19804 kPa | 730.3
19823 kPa | 730.5
19848 kPa | 730.4
19867 kPa | 730.5
19889 kPa | 730.5
19908 kPa | 730.5
19940 kPa | 730.5
19959 kPa | 730.6
19985 kPa | 730.5
20008 kPa | 730.6
20028 kPa | 730.6
20055 kPa | 730.6
20074 kPa | 730.5
20097 kPa | 730.6
20126 kPa | 730.4
20150 kPa | 730.6
20172 kPa | 730.7
20205 kPa | 730.7
20221 kPa | 730.7
20238 kPa | 730.8
20257 kPa | 730.7
20287 kPa | 730.8
20308 kPa | 730.7
20329 kPa | 730.8
20385 kPa | 730.8
20430 kPa | 730.9
20460 kPa | 730.9
20488 kPa | 730.9
20511 kPa | 731
20535 kPa | 730.9
20586 kPa | 731
20611 kPa | 731
20632 kPa | 730.9
20663 kPa | 731.1
20687 kPa | 731.1
20708 kPa | 731
20732 kPa | 731.2
20767 kPa | 731.1
20791 kPa | 731.2
20819 kPa | 731.1
20850 kPa | 731.2
20872 kPa | 731.1
20900 kPa | 731.1
20932 kPa | 731.4
21014 kPa | 731.3
21046 kPa | 731.3
21075 kPa | 731.3
21144 kPa | 731.3
21163 kPa | 731.4
21200 kPa | 731.3
21226 kPa | 731.6
21308 kPa | 731.5
21387 kPa | 731.5
21414 kPa | 731.7
21440 kPa | 731.6
21471 kPa | 731.6
21495 kPa | 731.7
21516 kPa | 731.6
21536 kPa | 731.6
21563 kPa | 731.7
21597 kPa | 731.7
21621 kPa | 731.6
21642 kPa | 731.8
21663 kPa | 731.8
21686 kPa | 731.8
21728 kPa | 731.9
21752 kPa | 731.8
21771 kPa | 731.8
21827 kPa | 731.8
21852 kPa | 731.9
21883 kPa | 731.9
21911 kPa | 731.9
21932 kPa | 731.9
21953 kPa | 731.9
21985 kPa | 731.9
22006 kPa | 731.9
22034 kPa | 732
22060 kPa | 732.1
22083 kPa | 732.1
22115 kPa | 732
22140 kPa | 732.1
22165 kPa | 732
22198 kPa | 732.2
22216 kPa | 732
22245 kPa | 732.2
22263 kPa | 732.1
22292 kPa | 732.2
22321 kPa | 732.2
22348 kPa | 732.2
22374 kPa | 732.2
22400 kPa | 732.2
22426 kPa | 732.3
22522 kPa | 732.3
22577 kPa | 732.3
22645 kPa | 732.5
22672 kPa | 732.5
22699 kPa | 732.4
22729 kPa | 732.6
22756 kPa | 732.5
22794 kPa | 732.6
22828 kPa | 732.6
22855 kPa | 732.6
22882 kPa | 732.5
22904 kPa | 732.6
22939 kPa | 732.7
23398 kPa | 733
23435 kPa | 732.9
23468 kPa | 732.9
23492 kPa | 733
23529 kPa | 733
23554 kPa | 733
23579 kPa | 733.1
23611 kPa | 733.2
23636 kPa | 733
23669 kPa | 733.1
23699 kPa | 733.2
23732 kPa | 733.2
23758 kPa | 733.2
23792 kPa | 733.3
23821 kPa | 733.4
23851 kPa | 733.2
23873 kPa | 733.2
23894 kPa | 733.3
23923 kPa | 733.4
23954 kPa | 733.4
23992 kPa | 733.4
24027 kPa | 733.4
24054 kPa | 733.4
24081 kPa | 733.5
24116 kPa | 733.5
24142 kPa | 733.4
